These results are taken from PubChem BioAssay AID651659 (Broad Institute, 2012).

The source made the active and inactive calls.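 The calls were made as follows: active = signal drops, with AC50 within twice each sample's top valid tested dose; inconclusive = flat curve at 30 to 70% inhibition, or poor fit; inactive = signal moves against the expected drop, plus the rest.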

Chain of Mitogen-activated protein kinase 3 (Homo sapiens) (P27361 whole entry, looked up): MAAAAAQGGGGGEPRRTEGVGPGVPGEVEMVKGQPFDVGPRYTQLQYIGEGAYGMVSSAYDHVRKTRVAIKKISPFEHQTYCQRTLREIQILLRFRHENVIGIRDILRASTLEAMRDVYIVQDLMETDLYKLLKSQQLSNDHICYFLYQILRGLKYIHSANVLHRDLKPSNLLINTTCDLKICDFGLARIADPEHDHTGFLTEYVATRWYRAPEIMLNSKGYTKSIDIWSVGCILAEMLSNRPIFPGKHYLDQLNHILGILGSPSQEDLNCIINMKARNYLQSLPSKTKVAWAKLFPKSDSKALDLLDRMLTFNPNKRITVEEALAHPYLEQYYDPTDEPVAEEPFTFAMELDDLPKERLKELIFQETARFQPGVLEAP

The first test addresses Mitogen-activated protein kinase 3 (Homo sapiens) (UniProt P27361). Kind of test: ERK1 kinase inhibitors, dose response, selectivity assay for Dyrk1A inhibitor NFAT project, biochemical, ADP-Glo luminescence, dry powder, set 2 (AID 651659). To be noted: 120 min.
Consider `CN(CC(=O)Nc1nc2ccc(F)cc2s1)S(=O)(=O)c1ccc(Cl)cc1`, for which the AC50 is > 20 µM (inactive).

With `COc1ccc(-c2csc(NC(=O)CSCC(=O)N3CCCC3)n2)cc1`, the AC50 was > 20 µM (inactive).

In the case of `CN(CC(=O)Nc1nc2ccc(Cl)cc2s1)S(=O)(=O)c1ccc(C#N)cc1`, the concentration at half-maximal activity (AC50) was 5.91 µM.

The same test, now with this note: 120 min, at 1.1 µM (top of the series).
As to `CC(C)n1cnc2cc(NCc3cccc4ccccc34)ccc21`, the “activity change, negative = inhibition” value was “inactive”.

Still in this test, the particulars now being: 120 min, at 10 µM (top of the series).
As to `COc1ccc2c(Cl)c(C(N)=O)sc2c1`, the “activity change, negative = inhibition” value was “inactive”.

In the case of `COc1ccc2nc(NC(=O)CN(C)S(=O)(=O)c3ccc(F)cc3)sc2c1`, the “activity change, negative = inhibition” value is “inactive”.

For the molecule `CN(CC(=O)Nc1nc2ccccc2s1)S(=O)(=O)c1ccccc1`, the “activity change, negative = inhibition” value was “inactive”.

On to `Cc1ccccc1S(=O)(=O)Cc1ccc(C(=O)NC(C)c2ccc3c(c2)OCCO3)o1` (stereo not given), for which the “activity change, negative = inhibition” value was “inactive”.

For the molecule `Cc1sc(NC(=O)CSCc2ccccc2)nc1-c1ccccc1`, the “activity change, negative = inhibition” value is “inactive”.

As to `COc1ccc2nc(NC(=O)C3CCN(S(=O)(=O)c4cccc5nonc45)CC3)sc2c1`, the “activity change, negative = inhibition” value was “inactive”.

As to `CN(CC(=O)Nc1nc2ccccc2s1)S(=O)(=O)c1ccc(Cl)cc1`, the “activity change, negative = inhibition” value was “inactive”.

On to `COc1ccc2nc(NC(=O)C3CCCN(S(=O)(=O)c4cccc5nonc45)C3)sc2c1` (stereo not given), for which the “activity change, negative = inhibition” value was “inactive”.

Turning to `O=C(NCc1ccccc1)c1sc2ccccc2c1Cl`, the “activity change, negative = inhibition” value is “inactive”.

With `COc1ccc2nc(NC(=O)C3CCCN(S(=O)(=O)c4cccc5cccnc45)C3)sc2c1` (stereo not given), the “activity change, negative = inhibition” value was “inactive”.

Turning to `COc1ccc2c(Cl)c(C(=O)NC(C)C)sc2c1`, the “activity change, negative = inhibition” value is “inactive”.

Turning to `COc1ccc2c(Cl)c(C(=O)NCc3cccnc3)sc2c1`, the “activity change, negative = inhibition” value is “inactive”.

Regarding `CCOc1ccc2nc(NC(=O)COc3ccc(Cl)c(OC)c3)sc2c1`, the “activity change, negative = inhibition” value was “inactive”.

Regarding `COc1ccc2c(Cl)c(C(=O)NCc3ccccc3)sc2c1`, the “activity change, negative = inhibition” value is “inactive”.

As for `CN(CC(=O)Nc1nc2ccc(Cl)cc2s1)S(=O)(=O)c1ccc(Cl)cc1`, the “activity change, negative = inhibition” value is “inactive”.

For `Cc1csc(NC(=O)C2CCCN(S(=O)(=O)c3cccc4nonc34)C2)n1` (stereo not given), the “activity change, negative = inhibition” value is “inactive”.

Turning to `COc1ccc(C2=Nn3c(nnc3-c3cccnc3)SC2)cc1OC`, the “activity change, negative = inhibition” value is “inactive”.

On to `COc1ccc2c(c1)[nH]c1c(C)nccc12`, for which the “activity change, negative = inhibition” value was “inactive”.

On to `COc1ccc2nc(NC(=O)C3CCN(S(=O)(=O)c4cccnc4)CC3)sc2c1`, for which the “activity change, negative = inhibition” value is “inactive”.

`CCCCN(c1nc2ccccc2s1)S(=O)(=O)c1ccc(Cl)cc1`: the “activity change, negative = inhibition” value was “inactive”.

Turning to `COc1ccc(S(=O)(=O)N2CCCC(C(=O)Nc3nc4ccccc4s3)C2)cc1` (stereo not given), the “activity change, negative = inhibition” value is “inactive”.

On to `COc1ccc2nc(NC(=O)C3CCCN(S(=O)(=O)c4cccc5nsnc45)C3)sc2c1` (stereo not given), for which the “activity change, negative = inhibition” value is “inactive”.

Consider `O=C(NCc1ccco1)c1sc2ccccc2c1Cl`, for which the “activity change, negative = inhibition” value was “inactive”.

As to `COc1ccc(OC)c(CNC(=O)c2sc3ccccc3c2Cl)c1`, the “activity change, negative = inhibition” value was “inactive”.

Turning to `COc1ccc(CNC(=O)c2sc3ccccc3c2Cl)cc1`, the “activity change, negative = inhibition” value is “inactive”.

Turning to `COc1ccc(C2=Nn3c(nnc3-c3ccncc3)SC2)cc1`, the “activity change, negative = inhibition” value was “inactive”.

As for `COc1ccc(C2=Nn3c(nnc3-c3cccnc3)SC2)cc1`, the “activity change, negative = inhibition” value was “inactive”.

For `COc1cccc(C2=Nn3c(nnc3-c3ccccc3)SC2)c1`, the “activity change, negative = inhibition” value is “inactive”.

Turning to `COc1ccc(NC(=O)C2CCCN(S(=O)(=O)c3cccc4nonc34)C2)cc1` (stereo not given), the “activity change, negative = inhibition” value was “inactive”.

For `COc1ccc2nc(NC(=O)C3CCN(S(=O)(=O)c4ccc(C)cc4)CC3)sc2c1`, the “activity change, negative = inhibition” value is “inactive”.

For the molecule `COc1ccc(OC)c(C2=Nn3c(nnc3-c3ccccc3)SC2)c1`, the “activity change, negative = inhibition” value was “inactive”.

As for `CCOc1ccc2nc(NC(=O)C3CCCN(S(=O)(=O)c4cccc5cccnc45)C3)sc2c1` (stereo not given), the “activity change, negative = inhibition” value was “inactive”.

Consider `Cc1ccc(S(=O)(=O)N(C)CC(=O)Nc2nc3ccc(Cl)cc3s2)cc1C`, for which the “activity change, negative = inhibition” value is “inactive”.

For `Cc1cccc2sc(NC(=O)CN(C)S(=O)(=O)c3ccc(Cl)cc3)nc12`, the “activity change, negative = inhibition” value is “inactive”.

Turning to `COc1ccc(OC)c(C2=Nn3c(nnc3-c3ccccn3)SC2)c1`, the “activity change, negative = inhibition” value was “inactive”.

As to `C=CCn1cnc2scc(-c3ccc(OC)cc3)c2c1=O`, the “activity change, negative = inhibition” value was “inactive”.

Turning to `Cc1ccc(S(=O)(=O)N(C)CC(=O)Nc2nc3ccccc3s2)cc1`, the “activity change, negative = inhibition” value was “inactive”.

For `COc1ccc(OC)c(C2=Nn3c(nnc3-c3ccncc3)SC2)c1`, the “activity change, negative = inhibition” value is “inactive”.

Regarding `COc1ccc2nc(NC(=O)C3CCN(S(=O)(=O)c4cccc5nsnc45)CC3)sc2c1`, the “activity change, negative = inhibition” value was “inactive”.

With `Clc1ccc(CSc2nc(Nc3ccc4c(c3)OCO4)c3ccccc3n2)cc1`, the “activity change, negative = inhibition” value is “inactive”.

`CN(CC(=O)Nc1nccs1)S(=O)(=O)c1ccc(Cl)cc1`: the “activity change, negative = inhibition” value was “inactive”.

As usually defined, the AC50 is the concentration giving half of the maximal activity seen.
